This is an account of results in ChEMBL document CHEMBL1147757, “Design and preparation of 2-benzamido-pyrimidines as inhibitors of IKK” (Bioorg Med Chem Lett, 2006).

Bounds are passed on as bounds.

The target in test [1] is T1, Inhibitor of nuclear factor kappa-B kinase subunit alpha (Homo sapiens, UniProt O15111).
T1 sequence (O15111 whole entry): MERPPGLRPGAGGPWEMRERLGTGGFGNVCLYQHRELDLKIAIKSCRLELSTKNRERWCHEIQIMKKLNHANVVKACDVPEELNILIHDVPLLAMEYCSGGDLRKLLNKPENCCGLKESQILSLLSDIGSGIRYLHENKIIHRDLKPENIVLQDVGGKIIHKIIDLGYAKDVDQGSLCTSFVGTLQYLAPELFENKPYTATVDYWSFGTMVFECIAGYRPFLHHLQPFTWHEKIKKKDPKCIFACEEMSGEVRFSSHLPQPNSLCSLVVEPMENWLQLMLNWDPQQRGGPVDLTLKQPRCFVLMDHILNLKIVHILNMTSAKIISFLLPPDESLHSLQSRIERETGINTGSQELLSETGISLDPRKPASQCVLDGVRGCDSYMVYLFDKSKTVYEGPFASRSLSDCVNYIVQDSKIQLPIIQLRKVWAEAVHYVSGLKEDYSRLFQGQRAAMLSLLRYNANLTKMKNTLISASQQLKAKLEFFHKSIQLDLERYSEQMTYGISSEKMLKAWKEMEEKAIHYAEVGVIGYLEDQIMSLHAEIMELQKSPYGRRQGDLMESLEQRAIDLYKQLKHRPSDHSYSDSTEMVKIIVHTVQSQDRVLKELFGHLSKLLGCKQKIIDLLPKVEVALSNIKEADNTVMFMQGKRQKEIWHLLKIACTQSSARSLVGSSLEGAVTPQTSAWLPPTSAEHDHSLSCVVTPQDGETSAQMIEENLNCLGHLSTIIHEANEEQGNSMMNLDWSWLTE
The test is described as follows: Inhibitory activity against IKK1.

Test [2] concerns the target T2, Inhibitor of nuclear factor kappa-B kinase subunit beta (Homo sapiens, UniProt O14920).
T2 sequence (O14920 whole entry): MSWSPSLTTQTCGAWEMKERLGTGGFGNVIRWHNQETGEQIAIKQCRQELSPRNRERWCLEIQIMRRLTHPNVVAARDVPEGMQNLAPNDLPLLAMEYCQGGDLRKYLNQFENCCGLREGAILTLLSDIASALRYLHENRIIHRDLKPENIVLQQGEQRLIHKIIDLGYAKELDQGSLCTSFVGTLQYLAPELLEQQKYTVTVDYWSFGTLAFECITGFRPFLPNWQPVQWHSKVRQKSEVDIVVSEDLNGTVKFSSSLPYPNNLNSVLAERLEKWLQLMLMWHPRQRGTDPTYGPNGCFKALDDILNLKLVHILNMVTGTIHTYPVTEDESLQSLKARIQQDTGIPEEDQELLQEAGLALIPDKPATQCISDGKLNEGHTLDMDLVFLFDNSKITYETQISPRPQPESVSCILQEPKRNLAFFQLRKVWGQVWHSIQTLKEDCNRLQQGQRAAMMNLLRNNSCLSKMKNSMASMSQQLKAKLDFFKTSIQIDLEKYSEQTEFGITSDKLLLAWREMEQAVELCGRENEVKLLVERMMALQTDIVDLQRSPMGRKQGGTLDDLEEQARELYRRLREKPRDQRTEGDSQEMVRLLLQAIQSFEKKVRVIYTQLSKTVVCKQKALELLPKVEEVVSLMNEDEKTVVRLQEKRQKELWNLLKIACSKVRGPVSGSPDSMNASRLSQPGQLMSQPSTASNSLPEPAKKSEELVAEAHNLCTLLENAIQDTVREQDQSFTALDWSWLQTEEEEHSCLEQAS
Put plainly: Inhibitory activity against IKK2.

Test [3] has as its target T3, Inhibitor of NF-kappa-B kinase (IKK) (Homo sapiens, UniProt O14920+O15111+Q9Y6K9). The test is described as follows: Inhibitory activity against IKK complex isolated from HeLa cells. The test is classed as cell-based.
The target of test [4] is T3, Inhibitor of NF-kappa-B kinase (IKK). The test is described as follows: Inhibition of TNF-alpha-stimulated IkappaBalpha degradation. In kind it is functional.
For test [5] the target is unchanged. The test is described as follows: Inhibition of TNF-alpha-stimulated expression of E-selectin in HUVEC cells. In kind it is functional, cell-based.
Test [6] shares this target. The test is described as follows: Inhibition of TNF-alpha-stimulated expression of ICAM1 in HUVEC cells. The test is classed as functional, cell-based.
Test [7] has the same target. Put plainly: Inhibition of TNF-alpha-stimulated expression of VCAM1 in HUVEC cells. The test is classed as functional, cell-based.
Test [8] is described as follows: Inhibition of IFN-gamma-stimulated expression of beta-2 microglobulin. In kind it is functional.
A short description of test [9]: Inhibition of IFN-gamma-stimulated expression of HLA-DR. In kind it is functional.
The test system of test [10] is Rattus norvegicus. The test is described as follows: Inhibition of LPS-induced TNFalpha release into plasma in rat at 30 mg/kg, sc. The test is classed as functional. The conditions noted are these: route subcutaneous.
In test [11] the test system is Rattus norvegicus. Put plainly: Inhibition of LPS-induced TNFalpha release into plasma in rat at 30 mg/kg, po. The test is classed as functional.
The target in test [12] is T3, Inhibitor of NF-kappa-B kinase (IKK). Put plainly: Inhibition of LPS-induced TNFalpha release from human PBMC. In kind it is functional.
Test [13] concerns Mus musculus. The test is described as follows: Inhibition of thioglycollate-induced polymorphonuclear neutrophil release in mouse peritoneum at 10 mg/kg, sc. The conditions noted are these: route subcutaneous. The test is classed as functional.

T3 sequence (Q9Y6K9 whole entry, one chain of several): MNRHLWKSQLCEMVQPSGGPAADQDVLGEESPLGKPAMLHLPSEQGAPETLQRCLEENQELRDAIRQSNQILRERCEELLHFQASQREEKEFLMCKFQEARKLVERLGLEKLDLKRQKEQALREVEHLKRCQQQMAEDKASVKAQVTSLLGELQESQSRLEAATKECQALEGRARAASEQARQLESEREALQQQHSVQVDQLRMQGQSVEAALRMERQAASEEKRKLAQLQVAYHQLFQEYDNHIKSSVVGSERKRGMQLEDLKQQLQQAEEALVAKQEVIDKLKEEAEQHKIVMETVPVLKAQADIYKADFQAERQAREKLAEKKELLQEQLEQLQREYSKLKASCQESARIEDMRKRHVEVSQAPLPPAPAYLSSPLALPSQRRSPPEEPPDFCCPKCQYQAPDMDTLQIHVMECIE

For the molecule `CC(=O)NC(C)(C)CCc1ccc(-c2ccnc(Nc3ccc(C(=O)N4CCC(N5CCCC5)CC4)cc3)n2)s1`, the IC50 (commonly the midpoint of a concentration-inhibition curve) worked out at 30000 nM in test [1], 150 nM in test [2] and 800 nM in [3].
In test [2], `O=C(O)Cc1ccc(Nc2nccc(-c3cc4ccccc4s3)n2)cc1` yielded an IC50 of 2200 nM.
As for `CC(C)(N)C#Cc1ccc(-c2ccnc(Nc3ccc(C(=O)N4CCC(N5CCCC5)CC4)cc3)n2)s1`, the IC50 in test [1] turned out to be 500 nM; in test [2], 150 nM; in [3], 200 nM.
In the case of `COCCCc1ccc(-c2ccnc(Nc3ccc(C(=O)N4CCC(N5CCCC5)CC4)cc3)n2)s1`, the IC50 is 1000 nM in test [1]; 100 nM in test [2]; 100 nM in [3]; 1000 nM in test [4]; 400 nM in test [5]; 600 nM in test [6]. Also, the values for the half-maximal inhibitory concentration (IC50) in test [7], in test [8] and in test [9] were 500 nM, 5000 nM and 2000 nM, respectively.
For the molecule `COc1cc(Nc2nccc(-c3cc4ccccc4s3)n2)ccc1C(=O)N1CCC(N2CCCC2)CC1`, the IC50 in test [1] was found to be 100 nM; in test [2], 50 nM; in [3] it was 150 nM.
The matching figures for `O=C(O)c1ccccc1Nc1nccc(-c2cc3ccccc3s2)n1`: over 100000 nM, over 100000 nM and over 100000 nM.
`O=C(O)c1ccc(Nc2nccc(-c3cc4ccccc4s3)n2)cc1`: the half-inhibitory concentration (IC50) in test [1] is 5000 nM; in [2] it was 600 nM; in test [3] it was 18000 nM; in test [4], 100000 nM; in test [5], 50000 nM; in [6] it was 50000 nM. In addition, the IC50 in [7] was determined as 50000 nM; in test [8], 100000 nM; in test [9], 100000 nM.
With `CN(C)C1CCN(C(=O)c2ccc(Nc3nccc(-c4cc5ccccc5s4)n3)cc2)CC1`, the half-maximal inhibitory concentration (IC50) is 150 nM in test [1]; 40 nM in test [2]; 80 nM in [3]; 2000 nM in [4]; 300 nM in test [5]; 400 nM in [6]. Also, the half-inhibitory concentration (IC50) was determined as 400 nM in test [7], 2000 nM in test [8] and 2000 nM in test [9].
As to `O=C(NCCN1CCCC1)c1ccc(Nc2nccc(-c3cc4ccccc4s3)n2)cc1`, the concentration for half-maximal inhibition (IC50) in [1] is 1200 nM; in test [2], 400 nM; in [3], 500 nM.
With `O=C(c1ccc(Nc2nccc(-c3ccc(CCCCO)s3)n2)cc1)N1CCC(N2CCCC2)CC1`, the IC50 in [1] worked out at 500 nM; in test [2], 25 nM; in [3], 40 nM; in [4], 2000 nM; in [5] it was 200 nM; in test [6] it was 200 nM. The half-maximal inhibitory concentration (IC50) in test [7] was determined as 200 nM; in test [8], 5000 nM; in test [9], 2500 nM.
On to `CN(C)CCNC(=O)c1ccc(Nc2nccc(-c3cc4ccccc4s3)n2)cc1`, for which the 50% inhibitory concentration (IC50) was 1200 nM in [1]; 200 nM in test [2]; 300 nM in test [3]; 5000 nM in test [4]; 500 nM in test [5]; 500 nM in test [6]. Further, the values for the half-maximal inhibitory concentration (IC50) in test [7] and in test [8] were 500 nM and 2000 nM, respectively.
The molecule `CC(C)CCNC(=O)c1ccc(Nc2nccc(-c3cc4ccccc4s3)n2)cc1` came in with a half-inhibitory concentration (IC50) in test [2] of over 100000 nM.
With `O=C(c1ccc(Nc2nccc(-c3cc4ccccc4s3)n2)cc1)N1CCCC1`, the IC50 was 3800 nM in [1]; 900 nM in test [2]; 8500 nM in test [3]; 20000 nM in [4]; 2000 nM in [5]; 2000 nM in [6]. For the same molecule, the IC50 in [7] worked out at 2000 nM; in [8], 10000 nM; in test [9] it was 250 nM.
Consider `CC(C)(O)CCc1ccc(-c2ccnc(Nc3ccc(C(=O)N4CCC(N5CCCC5)CC4)cc3)n2)s1`, for which the 50% inhibitory concentration (IC50) amounted to 700 nM in [1]; 50 nM in test [2]; 50 nM in [3]; 2000 nM in test [4]; 450 nM in test [5]; 500 nM in test [6]. The half-inhibitory concentration (IC50) in [7] was determined as 600 nM; in [8], 5000 nM; in [9] it was 3000 nM.
Consider `NCCNC(=O)c1ccc(Nc2nccc(-c3cc4ccccc4s3)n2)cc1`, for which the values for the 50% inhibitory concentration (IC50) in test [1], in [2] and in test [3] were 3700 nM, 600 nM and 4400 nM, respectively.
Regarding `O=C(O)c1cccc(Nc2nccc(-c3cc4ccccc4s3)n2)c1`, the IC50 in [2] came to 1000 nM.
Take `CC(C)(N)CCc1ccc(-c2ccnc(Nc3ccc(C(=O)N4CCC(N5CCCC5)CC4)cc3)n2)s1`: the half-inhibitory concentration (IC50) in [1] was found to be 30 nM; in [2] it was 40 nM; in [3] it was 40 nM.
For `O=C(c1ccc(Nc2nccc(-c3cc4ccccc4s3)n2)cc1Cl)N1CCC(N2CCCC2)CC1`, the IC50 stood at 400 nM in test [1], 90 nM in [2] and 250 nM in test [3].
The matching figures for `CCC(N)(CC)CCc1ccc(-c2ccnc(Nc3ccc(C(=O)N4CCC(N5CCCC5)CC4)cc3)n2)s1`: 30 nM, 60 nM and 30 nM.
In the case of `O=C(c1ccc(Nc2nccc(-c3cc4ccccc4s3)n2)cc1)N1CCC(N2CCCC2)CC1`, the half-inhibitory concentration (IC50) in [1] came out at 200 nM; in test [2] it was 40 nM; in test [3], 70 nM; in test [4], 1000 nM; in test [5] it was 500 nM; in [6], 300 nM. In addition, the 50% inhibitory concentration (IC50) came to 300 nM in test [7], 2000 nM in [8], 2000 nM in test [9] and 300 nM in test [12]. For the same molecule, the inhibition in vivo (in general, the percentage by which the read-out fell short of the control) at 30 mg/kg in [10] was determined as 86%; in test [11], 75%. In [13], 10 mg/kg produced 50% inhibition in vivo.
